Source: ChEMBL document CHEMBL1154640, “Application of desirability-based multi(bi)-objective optimization in the design of selective arylpiperazine derivates for the 5-HT1A serotonin receptor” (Eur J Med Chem, 2009)

Key:
[1] = target: 5-hydroxytryptamine receptor 2A (Rattus norvegicus, UniProt P14842); experiment: Displacement of [3H]ketanserin from 5-HT2A receptor in Wistar Hannover rat brain cortex membrane
[2] = target: T1, 5-hydroxytryptamine receptor 1A (Homo sapiens, UniProt P08908); experiment: Displacement of [3H]8-OH-DPAT from human recombinant 5-HT1A receptor expressed in HEK293 cells after 120 mins; type: cell-based
T1 sequence (P08908 whole entry): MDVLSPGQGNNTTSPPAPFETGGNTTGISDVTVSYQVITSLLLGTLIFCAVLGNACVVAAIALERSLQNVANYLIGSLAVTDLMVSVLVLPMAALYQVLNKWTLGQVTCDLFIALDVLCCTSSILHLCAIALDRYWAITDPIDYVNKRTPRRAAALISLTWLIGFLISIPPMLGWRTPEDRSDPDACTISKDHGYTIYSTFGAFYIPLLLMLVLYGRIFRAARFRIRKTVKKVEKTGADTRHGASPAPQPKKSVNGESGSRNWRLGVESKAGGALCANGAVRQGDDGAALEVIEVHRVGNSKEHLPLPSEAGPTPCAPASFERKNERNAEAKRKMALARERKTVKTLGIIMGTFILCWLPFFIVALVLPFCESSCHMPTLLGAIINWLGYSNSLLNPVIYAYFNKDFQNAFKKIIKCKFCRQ

Chain of 5-hydroxytryptamine receptor 2A (P14842 whole entry): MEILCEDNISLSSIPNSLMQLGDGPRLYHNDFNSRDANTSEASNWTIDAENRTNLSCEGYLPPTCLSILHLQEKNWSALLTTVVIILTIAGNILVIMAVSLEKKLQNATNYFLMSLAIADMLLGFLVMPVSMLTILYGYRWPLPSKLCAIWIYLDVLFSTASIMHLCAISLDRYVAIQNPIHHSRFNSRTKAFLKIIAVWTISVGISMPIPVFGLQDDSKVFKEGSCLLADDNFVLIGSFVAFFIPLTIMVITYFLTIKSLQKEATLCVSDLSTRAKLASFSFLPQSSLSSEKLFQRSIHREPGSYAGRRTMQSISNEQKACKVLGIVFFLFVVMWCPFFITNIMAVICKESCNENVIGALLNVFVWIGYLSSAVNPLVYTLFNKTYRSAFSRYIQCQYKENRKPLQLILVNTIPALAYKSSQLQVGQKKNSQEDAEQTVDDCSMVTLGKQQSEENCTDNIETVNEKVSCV

Ki [1]	Ki [2]	Structure (SMILES)
269 nM	204 nM	O=c1ccc(=O)n(-c2ccccc2)n1CCCN1CCN(c2cccc(Cl)c2)CC1
562 nM	36.3 nM	COc1ccccc1N1CCN(CCCCn2cnc3ccccc3c2=O)CC1
457 nM	100 nM	COc1ccccc1N1CCN(CCCn2cnc3ccccc3c2=O)CC1
15.8 nM	234 nM	O=c1c2ccccc2ncn1CCCN1CCN(c2cccc(Cl)c2)CC1
372 nM	42.7 nM	COc1ccccc1N1CCN(CCCCn2c(=O)c3ccccc3c(=O)n2-c2ccccc2)CC1
67.6 nM	50.1 nM	O=c1c2ccccc2ncn1CCCCN1CCN(c2cccc(Cl)c2)CC1
575 nM	398 nM	O=c1c2ccccc2c(=O)n(-c2ccccc2)n1CCCCN1CCN(c2cccc(Cl)c2)CC1
302 nM	30.2 nM	COc1ccccc1N1CCN(CCCn2c(=O)c3ccccc3c(=O)n2-c2ccccc2)CC1
661 nM	417 nM	O=c1c2ccccc2c(=O)n(-c2ccccc2)n1CCCN1CCN(c2cccc(Cl)c2)CC1
1450 nM	11 nM	COc1ccccc1N1CCN(CCCCn2c(=O)ccc(=O)n2-c2ccccc2)CC1

Structure (SMILES)	Ki [1]	Ki [2]
O=c1ccc(=O)n(-c2ccccc2)n1CCCCN1CCN(c2cccc(Cl)c2)CC1	1820 nM	50.1 nM
COc1ccccc1N1CCN(CCCn2c(=O)ccc(=O)n2-c2ccccc2)CC1	2140 nM	53.7 nM
